From ChEMBL document CHEMBL4364280 (Eur J Med Chem, 2019)
Active and inactive are the calls of the source. The calls are words filed in the database; no cut-off is given here.

Columns and labels:
[1] = molecular target: T1, 5-hydroxytryptamine receptor 6 (Homo sapiens, UniProt P50406); test: Agonist activity at recombinant human 5HT6 receptor expressed in CHOK1 cells co-expressing Galpha16/aequorin assessed as increase in calcium mobilization and measured for 60 secs in presence of coelenterazine by luminescence assay relative to control; type: functional, cell-based
T1 sequence (P50406 whole entry): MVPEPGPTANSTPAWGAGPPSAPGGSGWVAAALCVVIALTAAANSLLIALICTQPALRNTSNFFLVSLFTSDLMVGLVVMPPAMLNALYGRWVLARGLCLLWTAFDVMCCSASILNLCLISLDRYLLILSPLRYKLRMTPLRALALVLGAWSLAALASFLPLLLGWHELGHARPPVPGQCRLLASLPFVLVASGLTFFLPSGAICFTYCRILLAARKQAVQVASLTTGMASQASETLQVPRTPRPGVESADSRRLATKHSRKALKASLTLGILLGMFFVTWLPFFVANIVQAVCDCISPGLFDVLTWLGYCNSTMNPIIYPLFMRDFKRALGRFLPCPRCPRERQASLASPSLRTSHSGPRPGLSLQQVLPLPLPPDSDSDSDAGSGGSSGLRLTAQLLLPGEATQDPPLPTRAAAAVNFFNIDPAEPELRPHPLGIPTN

[2] = molecular target: T2, 5-hydroxytryptamine receptor 1A (Homo sapiens, UniProt P08908); test: Displacement of [3H]-8-OH-DPAT from human 5-HT1A expressed in human HEK293 cells assessed as inhibitory constant incubated for 1 hr by radioligand binding assay; type: cell-based
T2 sequence (P08908 whole entry): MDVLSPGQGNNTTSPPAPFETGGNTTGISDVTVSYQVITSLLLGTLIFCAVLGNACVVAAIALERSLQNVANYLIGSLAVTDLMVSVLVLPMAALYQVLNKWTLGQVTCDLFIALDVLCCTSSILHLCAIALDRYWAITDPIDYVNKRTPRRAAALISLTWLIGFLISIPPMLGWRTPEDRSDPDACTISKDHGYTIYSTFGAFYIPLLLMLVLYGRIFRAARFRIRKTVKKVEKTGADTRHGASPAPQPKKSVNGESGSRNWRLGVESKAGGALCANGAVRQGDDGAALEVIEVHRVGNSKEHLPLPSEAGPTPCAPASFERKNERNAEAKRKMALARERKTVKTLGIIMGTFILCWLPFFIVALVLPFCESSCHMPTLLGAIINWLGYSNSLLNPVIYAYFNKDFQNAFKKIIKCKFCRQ

D(2) dopamine receptor = D(2) dopamine receptor (Homo sapiens, UniProt P14416); test: Displacement of [3H]-raclopride from human D2L receptor expressed in human HEK293 cells incubated for 1 hr by radioligand binding assay; type: cell-based
D(2) dopamine receptor, sequence (P14416 whole entry): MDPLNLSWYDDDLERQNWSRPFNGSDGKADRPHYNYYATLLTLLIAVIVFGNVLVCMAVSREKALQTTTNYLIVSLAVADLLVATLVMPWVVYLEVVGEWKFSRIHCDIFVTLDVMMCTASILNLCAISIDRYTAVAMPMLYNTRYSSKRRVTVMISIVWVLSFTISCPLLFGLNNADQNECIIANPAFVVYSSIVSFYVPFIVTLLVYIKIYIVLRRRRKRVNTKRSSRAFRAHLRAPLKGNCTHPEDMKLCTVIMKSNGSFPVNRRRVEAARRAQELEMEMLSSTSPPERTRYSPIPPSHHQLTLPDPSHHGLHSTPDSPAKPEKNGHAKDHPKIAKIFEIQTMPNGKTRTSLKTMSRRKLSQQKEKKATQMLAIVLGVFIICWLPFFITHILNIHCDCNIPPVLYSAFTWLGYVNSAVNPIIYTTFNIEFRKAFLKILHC

[3] = molecular target: T1, 5-hydroxytryptamine receptor 6; test: Displacement of [3H]-LSD from human 5-HT6R expressed in human HEK293 cells incubated for 1 hr by radioligand binding assay; type: cell-based
[4] = molecular target: 5-hydroxytryptamine receptor 7 (Homo sapiens, UniProt P34969); test: Displacement of [3H]-5-CT from human 5-HT7R expressed in human HEK293 cells assessed as inhibitory constant incubated for 1 hr by radioligand binding assay; type: cell-based
5-hydroxytryptamine receptor 7, sequence (P34969 whole entry): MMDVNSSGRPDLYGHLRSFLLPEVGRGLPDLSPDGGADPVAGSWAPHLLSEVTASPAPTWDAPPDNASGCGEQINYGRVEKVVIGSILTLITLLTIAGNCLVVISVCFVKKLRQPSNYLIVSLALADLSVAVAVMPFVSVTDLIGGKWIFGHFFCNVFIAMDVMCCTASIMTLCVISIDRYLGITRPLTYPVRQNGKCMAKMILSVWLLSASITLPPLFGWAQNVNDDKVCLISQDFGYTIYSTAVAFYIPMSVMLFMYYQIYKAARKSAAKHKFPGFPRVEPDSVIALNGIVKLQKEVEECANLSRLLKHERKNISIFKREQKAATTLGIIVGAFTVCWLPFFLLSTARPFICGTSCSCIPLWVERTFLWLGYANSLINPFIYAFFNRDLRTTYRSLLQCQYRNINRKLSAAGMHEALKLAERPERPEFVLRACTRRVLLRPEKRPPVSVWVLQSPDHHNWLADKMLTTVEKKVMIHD

[5] = molecular target: 5-hydroxytryptamine receptor 2A (Homo sapiens, UniProt P28223); test: Displacement of [3H]-Ketanserin from human 5-HT2A expressed in CHO-K1 cells incubated for […] by radioligand binding assay; type: cell-based
5-hydroxytryptamine receptor 2A, sequence (P28223 whole entry): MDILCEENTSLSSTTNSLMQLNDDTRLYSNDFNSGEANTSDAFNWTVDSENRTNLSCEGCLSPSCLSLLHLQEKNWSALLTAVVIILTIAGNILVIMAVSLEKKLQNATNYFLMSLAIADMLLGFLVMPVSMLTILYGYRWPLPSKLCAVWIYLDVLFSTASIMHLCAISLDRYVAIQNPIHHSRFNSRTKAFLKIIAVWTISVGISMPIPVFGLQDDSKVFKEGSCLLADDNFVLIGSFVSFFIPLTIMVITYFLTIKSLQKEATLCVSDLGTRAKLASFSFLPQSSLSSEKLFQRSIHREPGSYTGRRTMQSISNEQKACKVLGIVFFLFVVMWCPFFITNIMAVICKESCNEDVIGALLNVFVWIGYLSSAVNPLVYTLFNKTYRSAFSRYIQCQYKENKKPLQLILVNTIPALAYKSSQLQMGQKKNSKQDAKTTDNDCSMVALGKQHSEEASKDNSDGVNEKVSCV

[6] = molecular target: T1, 5-hydroxytryptamine receptor 6; test: Antagonist activity at recombinant human 5HT6 receptor expressed in CHOK1 cells co-expressing Galpha16/aequorin assessed as reduction in serotonin-induced calcium mobilization flux preincubated for 30 mins followed by serotonin addition in presence of coelenterazine h by luminescence assay; type: functional, cell-based
[7] = Selectivity ratio of CC50 for cytotoxicity against human SH-SY5Y cells to ratio of Ki for human 5-HT6R expressed in human HEK293 cells
[8] = Mutagenicity in Salmonella typhimurium TA100 assessed as fold increase over MCB at 10 uM preincubated for 90 mins and measured after 72 hrs by Ames test; type: toxicity; conditions: salmonella enterica subsp. enterica serovar typhimurium
Rattus norvegicus [9] = test: Antidepressant activity in Wistar rat assessed as reduction in immobility at 0.1 to 1 mg/kg, ip measured after 60 mins by forced swim test; type: functional, organism-based
[10] = Mutagenicity in Salmonella typhimurium TA100 assessed as increase in revertant colonies at 1 uM preincubated for 90 mins and measured after 72 hrs by Ames test; type: toxicity; conditions: salmonella enterica subsp. enterica serovar typhimurium
[11] = Ratio of test compound CC50 to doxorubicin CC50 for cytotoxicity against human SH-SY5Y cells incubated for 72 hrs by MTS assay; type: cell-based
[12] = Mutagenicity in Salmonella typhimurium TA100 assessed as fold increase over MCB at 1 uM preincubated for 90 mins and measured after 72 hrs by Ames test; type: toxicity; conditions: salmonella enterica subsp. enterica serovar typhimurium
[13] = Mutagenicity in Salmonella typhimurium TA100 assessed as increase in revertant colonies at 10 uM preincubated for 90 mins and measured after 72 hrs by Ames test; type: toxicity; conditions: salmonella enterica subsp. enterica serovar typhimurium
SH-SY5Y = test: Cytotoxicity against human SH-SY5Y cells assessed as decrease in cell viability at 100 uM incubated for 72 hrs by MTS assay; type: cell-based
Rattus norvegicus [14] = test: Antidepressant activity in Wistar rat assessed as rear movement moved at 0.3 mg/kg, ip pretreated for 60 mins and measured for 5 mins by open field test (reference value: 57 +/- 6); type: functional
Rattus norvegicus [15] = test: Antidepressant-like activity in Wistar rat assessed as total distance moved at 0.3 mg/kg, ip pretreated for 60 mins and measured for 5 mins by open field test (reference value: 2165 +/- 119 cm); type: functional
Rattus norvegicus [16] = test: Antidepressant activity in Wistar rat assessed as ambulation-Y movement moved at 0.3 mg/kg, ip pretreated for 60 mins and measured for 5 mins by open field test (reference value: 187 +/- 15); type: functional
Rattus norvegicus [17] = test: Antidepressant activity in Wistar rat assessed as reduction in immobility at 0.1 mg/kg, ip measured after 60 mins by forced swim test; type: functional, organism-based
Rattus norvegicus [18] = test: Antidepressant activity in Wistar rat assessed as ambulation-X movement moved at 0.3 mg/kg, ip pretreated for 60 mins and measured for 5 mins by open field test (reference value: 190 +/- 12); type: functional
Rattus norvegicus [19] = test: Antidepressant activity in Wistar rat assessed as reduction in immobility at 0.3 to 3 mg/kg, ip measured after 60 mins by forced swim test; type: functional; set-up: scale not given: the % may be the effect or the level left
Rattus norvegicus [20] = test: Antidepressant activity in Wistar rat assessed as reduction in immobility at 10 mg/kg, ip measured after 30 mins by forced swim test; type: functional, organism-based
Rattus norvegicus [21] = test: Antidepressant activity in Wistar rat assessed as rear movement moved at 1 mg/kg, ip pretreated for 60 mins and measured for 5 mins by open field test (reference value: 68 +/- 7); type: functional
Rattus norvegicus [22] = test: Antidepressant activity in Wistar rat assessed as total distance moved at 1 mg/kg, ip pretreated for 60 mins and measured for 5 mins by open field test (reference value: 929 +/- 36 cm); type: functional
Rattus norvegicus [23] = test: Antidepressant activity in Wistar rat assessed as ambulation-X movement moved at 1 mg/kg, ip pretreated for 60 mins and measured for 5 mins by open field test (reference value: 213 +/- 13); type: functional
Rattus norvegicus [24] = test: Antidepressant activity in Wistar rat assessed as reduction in immobility at 1 mg/kg, ip measured after 60 mins by forced swim test; type: functional; set-up: scale not given: the % may be the effect or the level left
Rattus norvegicus [25] = test: Antidepressant activity in Wistar rat assessed as ambulation-Y movement moved at 1 mg/kg, ip pretreated for 60 mins and measured for 5 mins by open field test (reference value: 187 +/- 14); type: functional

## O=S(=O)(c1ccccc1)c1cnc2c(N3CCNCC3)cccc2c1
[1]
  Emax: 2%

## Cc1ccc(OCc2nc(N)nc(N3CCN(C)CC3)n2)cc1
[2]
  Ki: 28.5 µM
D(2) dopamine receptor
  Ki: 2.92 µM
[3]
  Ki: 0.235 µM
[4]
  Ki: 16.1 µM

## Cc1cc(Cl)ccc1OCc1nc(N)nc(N2CCN(C)CC2)n1
[2]
  Ki: 7.69 µM
D(2) dopamine receptor
  Ki: 4.37 µM
[3]
  Ki: 0.911 µM
[4]
  Ki: 15.2 µM

## Cc1cc(OCc2nc(N)nc(N3CCN(C)CC3)n2)ccc1Cl
[5]
  Ki: 0.197 µM
[2]
  Ki: 3.58 µM
D(2) dopamine receptor
  Ki: 1.22 µM
[3]
  Ki: 0.355 µM
[4]
  Ki: 5.84 µM

## CN1CCN(c2nc(N)nc(C[Se]c3ccccc3)n2)CC1
D(2) dopamine receptor
  Ki: 0.506 µM

## CC(Sc1ccccc1Cl)c1nc(N)nc(N2CCN(C)CC2)n1 (stereo not drawn)
[6]
  Kb: 0.0029 µM
[5]
  Ki: 0.407 µM
[7]
  Selectivity ratio: >4000
[8]
  fold change (FC): 0.76
[2]
  Ki: 3.38 µM
Rattus norvegicus [9]
  Activity: inactive
[10]
  Activity: 10.33
D(2) dopamine receptor
  Ki: 0.52 µM
[1]
  Emax: 1%
[3]
  Ki: 0.019 µM
[11]
  selectivity ratio at 72 h: 100
[12]
  fold change (FC): 0.94
[13]
  Activity: 8.33
SH-SY5Y
  Activity: Toxic
[4]
  Ki: 4.57 µM

## CC([Se]c1ccccc1)c1nc(N)nc(N2CCN(C)CC2)n1 (stereo not drawn)
D(2) dopamine receptor
  Ki: 0.656 µM

## CN1CCN(c2nc(N)nc(CSc3ccccc3)n2)CC1
[5]
  Ki: 0.197 µM
[2]
  Ki: 4.39 µM
D(2) dopamine receptor
  Ki: 0.734 µM
[3]
  Ki: 0.026 µM
[4]
  Ki: 2.87 µM

## Cc1cccc(OCc2nc(N)nc(N3CCN(C)CC3)n2)c1
[5]
  Ki: 2.27 µM
[2]
  Ki: 15.1 µM
D(2) dopamine receptor
  Ki: 0.74 µM
[3]
  Ki: 0.207 µM
[4]
  Ki: 10.7 µM

## Cc1ccc(C(C)C)c(OCc2nc(N)nc(N3CCN(C)CC3)n2)c1
Rattus norvegicus [14]
  Activity: 56
Rattus norvegicus [15]
  Activity: 2833 cm
[6]
  Kb: 0.0046 µM
[7]
  Selectivity ratio: >4000
[8]
  fold change (FC): 0.47
Rattus norvegicus [16]
  Activity: 290
Rattus norvegicus [17]
  Activity: inactive
[10]
  Activity: 4.67
Rattus norvegicus [18]
  Activity: 307
[1]
  Emax: 1%
[3]
  Ki: 0.011 µM
[11]
  selectivity ratio at 72 h: 100
Rattus norvegicus [19]
  Activity: 20%
[12]
  fold change (FC): 0.55
[13]
  Activity: 4
SH-SY5Y
  Activity: Toxic

## CC(Oc1cccc(Cl)c1)c1nc(N)nc(N2CCN(C)CC2)n1 (stereo not drawn)
[5]
  Ki: 0.59 µM
[2]
  Ki: 3.44 µM
D(2) dopamine receptor
  Ki: 0.566 µM
[3]
  Ki: 0.118 µM
[4]
  Ki: 8.36 µM

## Cc1ccccc1OCc1nc(N)nc(N2CCN(C)CC2)n1
[5]
  Ki: 17.2 µM
[2]
  Ki: 14.2 µM
D(2) dopamine receptor
  Ki: 4.25 µM
[3]
  Ki: 0.087 µM
[4]
  Ki: 0.514 µM

## CN1CCN(c2nc(N)nc(COc3ccc(Cl)cc3Cl)n2)CC1
[2]
  Ki: 1.61 µM
D(2) dopamine receptor
  Ki: 1.23 µM
[3]
  Ki: 0.128 µM
[4]
  Ki: 3.8 µM

## CN1CCN2c3ccccc3Cc3ccccc3C2C1 (stereo not drawn)
[1]
  Emax: 1%

## CN1CCN(c2nc(N)nc(COc3ccccc3Cl)n2)CC1
[2]
  Ki: 5.47 µM
D(2) dopamine receptor
  Ki: 2.36 µM
[3]
  Ki: 0.129 µM
[4]
  Ki: 9.25 µM

## CN1CCN(c2nc(N)nc(COc3cccc(Cl)c3)n2)CC1
[2]
  Ki: 7.5 µM
D(2) dopamine receptor
  Ki: 0.674 µM
[3]
  Ki: 0.148 µM
[4]
  Ki: 5.82 µM

## COc1ccc(S(=O)(=O)Nc2cc(Cl)cc(Cl)c2OC)cc1N1CCNCC1
Rattus norvegicus [20]
  Activity: Active

## CN1CCN(c2nc(N)nc(CSc3ccccc3Cl)n2)CC1
[2]
  Ki: 1.68 µM
D(2) dopamine receptor
  Ki: 0.329 µM
[3]
  Ki: 0.126 µM
[4]
  Ki: 0.614 µM

## CN1CCN(c2nc(N)nc(CS(=O)(=O)c3ccccc3Cl)n2)CC1
[5]
  Ki: 11.6 µM
[2]
  Ki: > 1000 µM
D(2) dopamine receptor
  Ki: 50.1 µM
[3]
  Ki: 3.57 µM
[4]
  Ki: 98.4 µM

## CC(Oc1ccccc1Cl)c1nc(N)nc(N2CCN(C)CC2)n1 (stereo not drawn)
[6]
  Kb: 0.003 µM
[5]
  Ki: 1.83 µM
[7]
  Selectivity ratio: >4000
[8]
  fold change (FC): 1
[2]
  Ki: 4.54 µM
[10]
  Activity: 8
Rattus norvegicus [21]
  Activity: 46
D(2) dopamine receptor
  Ki: 1 µM
Rattus norvegicus [22]
  Activity: 1005 cm
[1]
  Emax: 1%
[3]
  Ki: 0.023 µM
[11]
  selectivity ratio at 72 h: 100
[12]
  fold change (FC): 0.73
[13]
  Activity: 11
Rattus norvegicus [23]
  Activity: 269
SH-SY5Y
  Activity: Toxic
[4]
  Ki: 38.7 µM
Rattus norvegicus [24]
  Activity: 22%
Rattus norvegicus [25]
  Activity: 227

## CN1CCN(c2nc(N)nc(COc3ccccc3)n2)CC1
[5]
  Ki: 2.63 µM
[2]
  Ki: 8.73 µM
D(2) dopamine receptor
  Ki: 1.35 µM
[4]
  Ki: 9.53 µM
